Laboratory results as given in ChEMBL document CHEMBL1128835, “The antitumor activity of novel pyrazoloquinoline derivatives” (Bioorg Med Chem Lett, 1995).

What was measured:
Mus musculus [1] = species: Mus musculus; experiment: Tested for tumor growth inhibition in mice; format: functional
P388 = experiment: In vitro cytotoxicity was evaluated following 1 hour transient exposure of P388 mouse leukemia cells to the compound; format: functional, cell-based; details: P388, 1 h
DNA topoisomerase II = DNA topoisomerase II (Homo sapiens, UniProt P11388+Q02880); experiment: Compound was tested for topoisomerase II inhibition in purified HeLa cells by SDS/K+ precipitation method; format: cell-based
Mus musculus [2] = experiment: In vivo antitumor activity was measured as the maximum dose tolerated by murine when administered intravenously; format: functional
Mus musculus [3] = experiment: In vivo antitumor activity was measured as the maximum dose tolerated by murine when administered subcutaneously; format: functional

Work on `Cc1cc(-c2c(F)cc3c4nn(C5CCN(C)CC5)c(=O)c-4cn(C4CC4)c3c2F)cc(C)n1` yielded a T/C (Mus musculus [1]) of 24%, an IC50 (P388) of 94 nM and an EC50 (DNA topoisomerase II) of 3.2 µM. The MTD (Mus musculus [2]) was 128 mg/kg.
Work on `CC(=O)N[C@H]1CC[C@@H](n2nc3c4cc(F)c(-c5cc(C)nc(C)c5)c(F)c4n(C4CC4)cc-3c2=O)CC1` yielded an IC50 (P388) of 1300 nM and an EC50 (DNA topoisomerase II) of 7.4 µM.
Molecule `Cc1cc(-c2c(F)cc3c4nn(CCN(C)C)c(=O)c-4cn(C4CC4)c3c2F)cc(C)n1` has a T/C (Mus musculus [1]) of 8%, an IC50 (P388) of 260 nM and an EC50 (DNA topoisomerase II) of 2.6 µM. The MTD (Mus musculus [2]) was 34 mg/kg.
`Cc1cc(-c2c(F)cc3c4nn(C5CCCCC5)c(=O)c-4cn(C4CC4)c3c2F)cc(C)n1` was tested, and the T/C (Mus musculus [1]) was 18%, the IC50 (P388) was 680 nM and the EC50 (DNA topoisomerase II) was 0.9 µM. For the same molecule, the MTD (Mus musculus [2]) was 140 mg/kg.
In the case of `Cc1cc(-c2c(F)cc3c4nn([C@H]5CC[C@H](N(C)C)CC5)c(=O)c-4cn(C4CC4)c3c2F)cc(C)n1`, the T/C (Mus musculus [1]) is reported as 2%, the IC50 (P388) is reported as 260 nM and the EC50 (DNA topoisomerase II) is reported as 4.4 µM. It also gave an MTD (Mus musculus [2]) of 390 mg/kg.
In the case of `Cc1cc(-c2c(F)cc3c4n[nH]c(=O)c-4cn(C4CC4)c3c2F)cc(C)n1`, the T/C (Mus musculus [1]) is reported as over 100%, the IC50 (P388) is reported as 7900 nM and the MTD (Mus musculus [3]) is reported as 2500 mg/kg. For the same molecule, the EC50 (DNA topoisomerase II) was 11 µM.
Molecule `Cc1cc(-c2c(F)cc3c4nn(C5CCC(C)CC5)c(=O)c-4cn(C4CC4)c3c2F)cc(C)n1` (centres undefined) has an IC50 (P388) of 1400 nM and an EC50 (DNA topoisomerase II) of 3.1 µM.
`Cc1cc(-c2c(F)cc3c4nn(CCCN(C)C)c(=O)c-4cn(C4CC4)c3c2F)cc(C)n1` was tested, and the T/C (Mus musculus [1]) was 35%, the IC50 (P388) was 160 nM and the EC50 (DNA topoisomerase II) was 1.7 µM. The MTD (Mus musculus [2]) was 64 mg/kg.
`Cc1cc(-c2c(F)cc3c4nn([C@H]5CC[C@@H](N)CC5)c(=O)c-4cn(C4CC4)c3c2F)cc(C)n1` showed a T/C (Mus musculus [1]) of 21%, an IC50 (P388) of 440 nM and an EC50 (DNA topoisomerase II) of 0.5 µM. The MTD (Mus musculus [2]) was 110 mg/kg.
In the case of `Cc1cc(-c2c(F)cc3c4nn(C)c(=O)c-4cn(C4CC4)c3c2F)cc(C)n1`, the IC50 (P388) is reported as 3100 nM and the EC50 (DNA topoisomerase II) is reported as 5.9 µM.
For `Cc1cc(-c2c(F)cc3c4nn(CCO)c(=O)c-4cn(C4CC4)c3c2F)cc(C)n1`, the IC50 (P388) was 2000 nM and the EC50 (DNA topoisomerase II) was 6.4 µM.
In the case of `CCOC(=O)Cn1nc2c3cc(F)c(-c4cc(C)nc(C)c4)c(F)c3n(C3CC3)cc-2c1=O`, the IC50 (P388) is reported as 5100 nM and the EC50 (DNA topoisomerase II) is reported as 6.1 µM.
`Cc1cc(-c2c(F)cc3c4nn(CCNCCO)c(=O)c-4cn(C4CC4)c3c2F)cc(C)n1` was tested, and the T/C (Mus musculus [1]) was 42%, the IC50 (P388) was 1300 nM and the EC50 (DNA topoisomerase II) was 3.3 µM. For the same molecule, the MTD (Mus musculus [2]) was 1410 mg/kg.
Molecule `Cc1cc(-c2c(F)cc3c4nn(CC(=O)O)c(=O)c-4cn(C4CC4)c3c2F)cc(C)n1` has an IC50 (P388) of over 200000 nM and an EC50 (DNA topoisomerase II) of 10 µM.
Molecule `Cc1cc(-c2c(F)cc3c4nn(-c5ccccc5)c(=O)c-4cn(C4CC4)c3c2F)cc(C)n1` has a T/C (Mus musculus [1]) of over 100%, an IC50 (P388) of 1800 nM and an MTD (Mus musculus [3]) of 635 mg/kg.
In the case of `Cc1cc(-c2c(F)cc3c4nn([C@H]5CC[C@@H](N(C)C)CC5)c(=O)c-4cn(C4CC4)c3c2F)cc(C)n1`, the T/C (Mus musculus [1]) is reported as 5%, the IC50 (P388) is reported as 67 nM and the EC50 (DNA topoisomerase II) is reported as 1.7 µM. The MTD (Mus musculus [2]) was 63 mg/kg.
`CC(=O)N[C@H]1CC[C@H](n2nc3c4cc(F)c(-c5cc(C)nc(C)c5)c(F)c4n(C4CC4)cc-3c2=O)CC1` gave an IC50 (P388) of 1200 nM and an EC50 (DNA topoisomerase II) of 9.8 µM.
`Cc1cc(-c2c(F)cc3c(=O)ccn(C4CC4)c3c2F)cc(C)n1` gave a T/C (Mus musculus [1]) of over 100%, an IC50 (P388) of 15000 nM and an MTD (Mus musculus [3]) of 1950 mg/kg.
In the case of `Cc1cc(-c2c(F)cc3c4nn(C5CCOCC5)c(=O)c-4cn(C4CC4)c3c2F)cc(C)n1`, the IC50 (P388) is reported as 290 nM and the EC50 (DNA topoisomerase II) is reported as 1.7 µM.
For `Cc1cc(-c2c(F)cc3c4nn([C@H]5CC[C@H](N)CC5)c(=O)c-4cn(C4CC4)c3c2F)cc(C)n1`, the T/C (Mus musculus [1]) was 42%, the IC50 (P388) was 1500 nM and the EC50 (DNA topoisomerase II) was 4.2 µM. The MTD (Mus musculus [2]) was 550 mg/kg.
Molecule `COc1cc(NS(C)(=O)=O)ccc1Nc1c2ccccc2nc2ccccc12` [AMSACRINE] has a T/C (Mus musculus [1]) of 0%, an IC50 (P388) of 150 nM and an MTD (Mus musculus [2]) of 48 mg/kg.
For `COc1cc([C@@H]2c3cc4c(cc3[C@@H](O[C@@H]3O[C@@H]5CO[C@@H](C)O[C@H]5[C@H](O)[C@H]3O)[C@H]3COC(=O)[C@H]23)OCO4)cc(OC)c1O` [ETOPOSIDE], the T/C (Mus musculus [1]) was 3% and the MTD (Mus musculus [2]) was 96 mg/kg.
`Cc1cc(-c2c(F)cc3c(=O)c(C(=O)O)cn(C4CC4)c3c2F)cc(C)n1` [WIN-57294] gave a T/C (Mus musculus [1]) of 31% and an MTD (Mus musculus [3]) of 600 mg/kg.
